Marks after values point to notes of the source that are not given here.
Experiments:
Format in all cases: in vivo, mouse
[1] = system: KK-A^y/Ta Jcl mice; test: Glucose loading test after repeated administration for 14 days (Example 1)
Description: (§1) As from Day 14 afterwards, the animals after being fasted for 18 hours or more were loaded orally with a glucose solution (2 g/kg, 10 mL/kg), whereby the blood-sugar levels were measured before, and 120 min. after, the said glucose loading. Each of the compounds was given orally to the animals 3 hours prior to the glucose loading, and the whole blood was drawn from each of the animals under anesthesia. Each of the said blood samples was centrifuged to yield a blood plasma, and the resultant blood plasmas were all preserved under freezing in a ultra-low-temperature freezer for subsequent use in the below-described measurements.
(§2) The blood-sugar level, total cholesterol level (hereinafter referred to briefly as “TC level”) and triglyceride level (hereinafter referred to briefly as “TG level”) were detected individually in accordance with the hexokinase/G-6-PDH method, enzyme method and GPO/HDAOS method, and measured with use of Biochemical Auto-Analyzer (Model AU 400, manufactured by Olympus Co. of Japan). The plasma insulin level (hereinafter referred to briefly as “IRI level”) and the plasma glucagon level (hereinafter referred to briefly as “IRG level”) were detected individually with the ELISA method (Lebisinsulin Mouse Insulin Kit, produced by K.K. Shibayagi of Japan) and the ELISA method (YK090 Glucagon EIA Kit, produced by K.K. Yanaihara Kenkyuu-sho of Japan), followed by measurement with use of a plate reader (Immuno Mini NJ-2300, Nalge Nunc International K.K. of Japan).
(§3) The blood-sugar, TC, TG, IRI and IRG levels and the body weight were expressed as a mean value±standard deviation as calculated for each group of animals. With reference to the significance test between the group treated through administration of the medium and each group treated through administration of the compound, the F test was effected to analyze the data and then, the Student's t-test and Aspin-Welch's t-test were used in cases where the variance between the two groups was determined to be equal and unequal, respectively. Referring to the significance level, less than 5% (p<0.05) was considered significant, and the significance level was expressed as divided into the two events of less than 1% (**: p<0.01) and less than 5% (*: p<0.05).

[2] = system: KK-A^y/Ta Jcl mice; test: Blood-sugar level after single and repeated oral administration (Example 1)
Description: On the day of initiation of administration (Day 1 of Administration), the obese/spontaneously type II diabetic mice; KK-A^y/Ta Jcl mice (male, 6-weeks aged, n=8) were treated through individual oral administration of the Test Compound 1 (ethyl N-allyl-N—[(E)-2-methyl-3-[4-(4-amidinophenoxycarbonyl)-phenyl]propenoyl]aminoacetate/methanesulfonate) of the present invention and the Control Compound 1 (5-{4-[2-(5-ethylpyridine-2-yl)ethoxy]benzyl}-1,3-thiazolidine-2,4-dione; pioglitazone) at the daily dose of 30 mg/kg, or the control medium (0.5% CMC), and blood was drawn from each animal through the orbital venous plexus 6 hours after administration. The blood-sugar levels were measured in accordance with the enzyme electrode method by use of Antosense II (manufactured by Daikin Kogyo KK of Japan). The said test was carried out while the animals were allowed free access to food and water.
Following the above-described single administration, the repeated, once-a-day forced oral administration of each compound was performed at the same daily dose for the total period of 14 consecutive days. On Days 3 and 11, blood was drawn in the same manner as described above 6 hours after administration of each compound, followed by measurement of the blood-sugar level.
as §3

[3] = system: KK-A^y/Ta Jcl mice; test: Plasma TC, TG, blood-sugar, IRI and IRG levels 3 hours subsequent to the glucose-loading test (Example 1); conditions: 3 hours subsequent to glucose-loading test
Description: as §1, §2, §3

[4] = Body weight after repeated administration for 14 days (Example 1); conditions: after repeated administration for 14 consecutive days
Description: Following the above-described single administration, the repeated, once-a-day forced oral administration of each compound was performed at the same daily dose for the total period of 14 consecutive days. […] The blood-sugar, TC, TG, IRI and IRG levels and the body weight were expressed as a mean value±standard deviation as calculated for each group of animals. With reference to the significance test between the group treated through administration of the medium and each group treated through administration of the compound, the F test was effected to analyze the data and then, the Student's t-test and Aspin-Welch's t-test were used in cases where the variance between the two groups was determined to be equal and unequal, respectively.

[5] = repeated once-a-day oral 30 mg/kg, 6 hours after administration

C=CCN(CC(=O)OCC)C(=O)/C(C)=C/c1ccc(C(=O)Oc2ccc(C(=N)N)cc2)cc1 [Test Compound 1, ethyl N-allyl-N—[(E)-2-methyl-3-[4-(4-amidinophenoxycarbonyl)-phenyl]propenoyl]aminoacetate/methanesulfonate]
Blood-sugar level before glucose loading ([1]; after 14 days 30 mg/kg p.o., fasted, compound 3 hours prior to loading): 155.0 ± 5.2 mg/dL | Blood-sugar level 120 Min. after glucose loading ([1]; after 14 days 30 mg/kg p.o., glucose 2 g/kg orally): 235.0 ± 5.9* mg/dL | Blood-sugar lowering action in the glucose loading test vs medium control group (in words) ([1]; after repeated administration for 14 consecutive days): significant blood-sugar lowering action | Effect on impaired glucose tolerance (in words) ([1]; repeated forced oral administration, spontaneously diabetic mice): ameliorated impaired glucose tolerance | Blood-sugar level before administration ([2]; Day 1, before single oral administration of 30 mg/kg (baseline)): 443.5 ± 19.6 mg/dL | Blood-sugar lowering action (in words) ([2]; repeated administration 30 mg/kg, Days 3 and 11): blood-sugar lowering action | Blood-sugar level Day 3 [2, 5]: 205.5 ± 7.0* mg/dL | Blood-sugar level Day 11 [2, 5]: 297.4 ± 18.4 mg/dL | Blood-sugar lowering action vs control medium group (in words) ([2]; single administration 30 mg/kg, 6 hours after administration): significant blood-sugar lowering action | Blood-sugar level 6 hrs. after administration ([2]; single oral administration, 30 mg/kg): 263.5 ± 11.0* mg/dL | Effect on IRG level (in words) ([3]; after 14 days): a decrease in the IRG level | Effect on IRI level (in words) ([3]; after 14 days): an increase in the IRI level | Effect on TC level (in words) ([3]; after 14 days): decreases | Effect on TG level (in words) ([3]; after 14 days): decreases | Effect on blood-sugar level (in words) ([3]; after 14 days): a decrease in the blood-sugar level | Blood-sugar level ([3]; after 14 days 30 mg/kg p.o.): 251.0 ± 7.2 mg/dL | IRG (plasma glucagon level) ([3]; after 14 days 30 mg/kg p.o.): 411 ± 31.5 pg/mL | IRI (plasma insulin level) ([3]; after 14 days 30 mg/kg p.o.): 1.74 ± 0.17 ng/mL | TC ([3]; after 14 days 30 mg/kg p.o.): 99.2 ± 3.6 mg/dL | TG ([3]; after 14 days 30 mg/kg p.o.): 81.4 ± 7.1 mg/dL | Effect on mouse body-weight vs control medium group (in words) [4]: did not show any changes in the mouse body-weight | Body weight ([4]; 30 mg/kg p.o.): 29.3 ± 0.3 g
